# System: test plant species
# Test: Post-emergent herbicidal activity test (greenhouse, foliar spray, visual growth reduction)
# Type: in vivo
# Conditions: post-emergence, 336 h, ALOMY: blackgrass (Alopecurus myosuroides), 140 g ai/ha, 14 days after application, read-out: Visual Growth Reduction (%) 14 Days After Application, ALOMY
# Outline: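 Scoring used a 0 to 100 percent visual scale of growth reduction against solvent-treated controls, read 14 d after spraying. Applications went onto plants at first or second true leaf stage, 187 L/ha, with crop oil concentrate and X-77 surfactant in the carrier. Post-treatment watering was by subirrigation to avoid wash-off.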
row,SMILES,pest or weed control at 140 g/ha [%]
1,"COC(=O)c1nc(-c2ccc(C(F)(F)F)c([S+](C)[O-])c2Cl)ccc1Cl (stereo not drawn) [F119, methyl 3-chloro-6-(2-chloro-3-(methylsulfinyl)-4-(trifluoromethyl)phenyl)picolinate]",0 to 29
2,"COC(=O)c1nc(-c2ccc(Cl)c(F)c2F)ccc1Cl [F71, Methyl 3-chloro-6-(4-chloro-2,3-difluorophenyl) picolinate]",0 to 29

# Same assay, conditions: post-emergence, 336 h, AMARE: redroot pigweed (Amaranthus retroflexus), 140 g ai/ha, 14 days after application, read-out: Visual Growth Reduction (%) 14 Days After Application, AMARE
row,SMILES,pest or weed control at 140 g/ha [%]
1,"COC(=O)c1nc(-c2ccc(C(F)(F)F)c([S+](C)[O-])c2Cl)ccc1Cl (stereo not drawn) [F119, methyl 3-chloro-6-(2-chloro-3-(methylsulfinyl)-4-(trifluoromethyl)phenyl)picolinate]",0 to 29
2,"COC(=O)c1nc(-c2ccc(Cl)c(F)c2F)ccc1Cl [F71, Methyl 3-chloro-6-(4-chloro-2,3-difluorophenyl) picolinate]",95 to 100

# Same assay, conditions: post-emergence, 336 h, AVEFA: wild oat (Avena fatua), 140 g ai/ha, 14 days after application, read-out: Visual Growth Reduction (%) 14 Days After Application, AVEFA
row,SMILES,pest or weed control at 140 g/ha [%]
1,"COC(=O)c1nc(-c2ccc(C(F)(F)F)c([S+](C)[O-])c2Cl)ccc1Cl (stereo not drawn) [F119, methyl 3-chloro-6-(2-chloro-3-(methylsulfinyl)-4-(trifluoromethyl)phenyl)picolinate]",0 to 29
2,"COC(=O)c1nc(-c2ccc(Cl)c(F)c2F)ccc1Cl [F71, Methyl 3-chloro-6-(4-chloro-2,3-difluorophenyl) picolinate]",0 to 29

# Same assay, conditions: post-emergence, 336 h, CHEAL: lambsquarters (Chenopodium album), 140 g ai/ha, 14 days after application, read-out: Visual Growth Reduction (%) 14 Days After Application, CHEAL
row,SMILES,pest or weed control at 140 g/ha [%]
1,"COC(=O)c1nc(-c2ccc(C(F)(F)F)c([S+](C)[O-])c2Cl)ccc1Cl (stereo not drawn) [F119, methyl 3-chloro-6-(2-chloro-3-(methylsulfinyl)-4-(trifluoromethyl)phenyl)picolinate]",0 to 29
2,"COC(=O)c1nc(-c2ccc(Cl)c(F)c2F)ccc1Cl [F71, Methyl 3-chloro-6-(4-chloro-2,3-difluorophenyl) picolinate]",95 to 100

# Same assay, conditions: post-emergence, 336 h, CIRAR: canada thistle (Cirsium arvense), 140 g ai/ha, 14 days after application, read-out: Visual Growth Reduction (%) 14 Days After Application, CIRAR
row,SMILES,pest or weed control at 140 g/ha [%]
1,"COC(=O)c1nc(-c2ccc(C(F)(F)F)c([S+](C)[O-])c2Cl)ccc1Cl (stereo not drawn) [F119, methyl 3-chloro-6-(2-chloro-3-(methylsulfinyl)-4-(trifluoromethyl)phenyl)picolinate]",0 to 29
2,"COC(=O)c1nc(-c2ccc(Cl)c(F)c2F)ccc1Cl [F71, Methyl 3-chloro-6-(4-chloro-2,3-difluorophenyl) picolinate]",75 to 84

# Same assay, conditions: post-emergence, 336 h, CYPES: yellow nutsedge (Cyperus esculentus), 140 g ai/ha, 14 days after application, read-out: Visual Growth Reduction (%) 14 Days After Application, CYPES
row,SMILES,pest or weed control at 140 g/ha [%]
1,"COC(=O)c1nc(-c2ccc(C(F)(F)F)c([S+](C)[O-])c2Cl)ccc1Cl (stereo not drawn) [F119, methyl 3-chloro-6-(2-chloro-3-(methylsulfinyl)-4-(trifluoromethyl)phenyl)picolinate]",0 to 29
2,"COC(=O)c1nc(-c2ccc(Cl)c(F)c2F)ccc1Cl [F71, Methyl 3-chloro-6-(4-chloro-2,3-difluorophenyl) picolinate]",60 to 74

# Same assay, conditions: post-emergence, 336 h, DIGSA: crabgrass (Digitaria sanguinalis), 140 g ai/ha, 14 days after application, read-out: Visual Growth Reduction (%) 14 Days After Application, DIGSA
row,SMILES,pest or weed control at 140 g/ha [%]
1,"COC(=O)c1nc(-c2ccc(C(F)(F)F)c([S+](C)[O-])c2Cl)ccc1Cl (stereo not drawn) [F119, methyl 3-chloro-6-(2-chloro-3-(methylsulfinyl)-4-(trifluoromethyl)phenyl)picolinate]",0 to 29
2,"COC(=O)c1nc(-c2ccc(Cl)c(F)c2F)ccc1Cl [F71, Methyl 3-chloro-6-(4-chloro-2,3-difluorophenyl) picolinate]",75 to 84

# Same assay, conditions: post-emergence, 336 h, ECHCG: barnyardgrass (Echinochloa crus-galli), 140 g ai/ha, 14 days after application, read-out: Visual Growth Reduction (%) 14 Days After Application, ECHCG
row,SMILES,pest or weed control at 140 g/ha [%]
1,"COC(=O)c1nc(-c2ccc(C(F)(F)F)c([S+](C)[O-])c2Cl)ccc1Cl (stereo not drawn) [F119, methyl 3-chloro-6-(2-chloro-3-(methylsulfinyl)-4-(trifluoromethyl)phenyl)picolinate]",0 to 29
2,"COC(=O)c1nc(-c2ccc(Cl)c(F)c2F)ccc1Cl [F71, Methyl 3-chloro-6-(4-chloro-2,3-difluorophenyl) picolinate]",0 to 29

# Same assay, conditions: post-emergence, 336 h, IPOHE: ivy-leaf morning glory (Ipomoea hederacea), 140 g ai/ha, 14 days after application, read-out: Visual Growth Reduction (%) 14 Days After Application, IPOHE
row,SMILES,pest or weed control at 140 g/ha [%]
1,"COC(=O)c1nc(-c2ccc(C(F)(F)F)c([S+](C)[O-])c2Cl)ccc1Cl (stereo not drawn) [F119, methyl 3-chloro-6-(2-chloro-3-(methylsulfinyl)-4-(trifluoromethyl)phenyl)picolinate]",0 to 29
2,"COC(=O)c1nc(-c2ccc(Cl)c(F)c2F)ccc1Cl [F71, Methyl 3-chloro-6-(4-chloro-2,3-difluorophenyl) picolinate]",95 to 100

# Same assay, conditions: post-emergence, 336 h, KCHSC: kochia (Bassia scoparia), 140 g ai/ha, 14 days after application, read-out: Visual Growth Reduction (%) 14 Days After Application, KCHSC
row,SMILES,pest or weed control at 140 g/ha [%]
1,"COC(=O)c1nc(-c2ccc(C(F)(F)F)c([S+](C)[O-])c2Cl)ccc1Cl (stereo not drawn) [F119, methyl 3-chloro-6-(2-chloro-3-(methylsulfinyl)-4-(trifluoromethyl)phenyl)picolinate]",0 to 29

# Same assay, conditions: post-emergence, 336 h, ORYSA: rice (Oryza sativa), 140 g ai/ha, 14 days after application, read-out: Visual Growth Reduction (%) 14 Days After Application, ORYSA
row,SMILES,pest or weed control at 140 g/ha [%]
1,"COC(=O)c1nc(-c2ccc(C(F)(F)F)c([S+](C)[O-])c2Cl)ccc1Cl (stereo not drawn) [F119, methyl 3-chloro-6-(2-chloro-3-(methylsulfinyl)-4-(trifluoromethyl)phenyl)picolinate]",0 to 29
2,"COC(=O)c1nc(-c2ccc(Cl)c(F)c2F)ccc1Cl [F71, Methyl 3-chloro-6-(4-chloro-2,3-difluorophenyl) picolinate]",30 to 44

# Same assay, conditions: post-emergence, 336 h, SETFA: giant foxtail (Setaria faberi), 140 g ai/ha, 14 days after application, read-out: Visual Growth Reduction (%) 14 Days After Application, SETFA
row,SMILES,pest or weed control at 140 g/ha [%]
1,"COC(=O)c1nc(-c2ccc(C(F)(F)F)c([S+](C)[O-])c2Cl)ccc1Cl (stereo not drawn) [F119, methyl 3-chloro-6-(2-chloro-3-(methylsulfinyl)-4-(trifluoromethyl)phenyl)picolinate]",0 to 29

# Same assay, conditions: post-emergence, 336 h, SORVU: grain sorghum (Sorghum vulgare), 140 g ai/ha, 14 days after application, read-out: Visual Growth Reduction (%) 14 Days After Application, SORVU
row,SMILES,pest or weed control at 140 g/ha [%]
1,"COC(=O)c1nc(-c2ccc(C(F)(F)F)c([S+](C)[O-])c2Cl)ccc1Cl (stereo not drawn) [F119, methyl 3-chloro-6-(2-chloro-3-(methylsulfinyl)-4-(trifluoromethyl)phenyl)picolinate]",0 to 29
2,"COC(=O)c1nc(-c2ccc(Cl)c(F)c2F)ccc1Cl [F71, Methyl 3-chloro-6-(4-chloro-2,3-difluorophenyl) picolinate]",75 to 84

# Same assay, conditions: post-emergence, 336 h, STEME: common chickweed (Stellaria media), 140 g ai/ha, 14 days after application, read-out: Visual Growth Reduction (%) 14 Days After Application, STEME
row,SMILES,pest or weed control at 140 g/ha [%]
1,"COC(=O)c1nc(-c2ccc(C(F)(F)F)c([S+](C)[O-])c2Cl)ccc1Cl (stereo not drawn) [F119, methyl 3-chloro-6-(2-chloro-3-(methylsulfinyl)-4-(trifluoromethyl)phenyl)picolinate]",0 to 29
2,"COC(=O)c1nc(-c2ccc(Cl)c(F)c2F)ccc1Cl [F71, Methyl 3-chloro-6-(4-chloro-2,3-difluorophenyl) picolinate]",45 to 59

# Same assay, conditions: post-emergence, 336 h, TRZAS: wheat, spring (Triticum aestivum), 140 g ai/ha, 14 days after application, read-out: Visual Growth Reduction (%) 14 Days After Application, TRZAS
row,SMILES,pest or weed control at 140 g/ha [%]
1,"COC(=O)c1nc(-c2ccc(C(F)(F)F)c([S+](C)[O-])c2Cl)ccc1Cl (stereo not drawn) [F119, methyl 3-chloro-6-(2-chloro-3-(methylsulfinyl)-4-(trifluoromethyl)phenyl)picolinate]",0 to 29
